According to BindingDB's records for doi:10.1021/jm9706325 (Monash University (Parkville Campus), 1999):

Target: 5-hydroxytryptamine receptor 1D (Bos taurus)
Test: Binding affinity against 5-hydroxytryptamine 1D receptor in calf caudate homogenates.

Ki [µM]	SMILES
3.8	CN(C)CCc1c(C(=O)NCc2ccccc2)[nH]c2ccc(CCN3C(=O)NC(C)(C)C3=O)cc12
1.32	CN(C)CCc1c(C(=O)NCc2ccccc2)[nH]c2ccc(CCN3C(=O)CNC3=O)cc12
